Test system: S. pombe yeast cells
Assay: Respirometric assessment of viability of S. pombe yeast cells treated with toxicant (oxygen uptake, phosphorescent oxygen probe)
Format: cell-based
Conditions: S. pombe cells incubated with different concentrations of toxicant, aliquots at different time intervals; FIG. 5
Experimental: A solid-state oxygen probe comprising a thin film polymer coating of the phosphorescent dye platinum(II)-tetrakis(pentafluorophenyl)porphine (PtTFPP) and polycarbonate was used with the device 1 shown in FIG. 1. One milligram of PtTFPP is dissolved in 0.01% (w/v) solution of polycarbonate (M.ca. 60 000) in chloroform. One microlitre aliquotes of this solution were dispensed to the microwells and allowed to air dry for 10 minutes to produce thin film phosphorescent oxygen-sensitive coating inside the microwells.
S. pombe yeast cells were incubated with different concentrations of cadmium nitrate toxicant. Two μl aliquots were taken from each sample at different time intervals, and placed in the wells of microwell chambers coated with a PtTFPP-polycarbonate solid-state oxygen probe. The respiration profiles of samples were monitored as described in Example 1 above, together with a control sample containing the same concentration of test cells, but without the presence of a toxicant. The levels of oxygen uptake by each sample is evaluated on the basis of time profiles of the phosphorescent signal (initial slopes), compared to those obtained in the control sample. […] This could be extended to compare cells growing in the presence of necessary growth factors, undergoing survival factor deprivation, or undergoing apoptosis.

O=[N+]([O-])[O-].O=[N+]([O-])[O-].[Cd+2] [cadmium nitrate]
oxygen uptake / initial slope of phosphorescent signal time profile, compared to control sample (cell viability): decrease in the initial slope and oxygen uptake with respect to control sample
